Assay results published in paper PMC7136958, “Targeting the pregnane X receptor using microbial metabolite mimicry” (EMBO Molecular Medicine, 2020).
In brackets after ≈: the same amount, converted by molar mass. Several values for one entry are separate records, joined by “and”; a condition that tells them apart may be missing. Identical values can stand only once.

How the values were obtained:
hPXR = molecular target: T1, hPXR (Homo sapiens, UniProt O75469); test: biochemical
T1 sequence (O75469 111-434 limits assumed): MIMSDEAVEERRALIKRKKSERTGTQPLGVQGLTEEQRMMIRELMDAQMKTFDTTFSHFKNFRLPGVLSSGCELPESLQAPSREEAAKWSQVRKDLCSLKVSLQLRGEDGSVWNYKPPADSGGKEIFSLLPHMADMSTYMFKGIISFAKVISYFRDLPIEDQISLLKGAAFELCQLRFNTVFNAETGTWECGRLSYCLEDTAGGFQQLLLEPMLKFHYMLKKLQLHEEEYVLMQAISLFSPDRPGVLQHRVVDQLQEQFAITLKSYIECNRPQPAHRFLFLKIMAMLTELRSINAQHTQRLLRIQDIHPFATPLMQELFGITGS
Description: All PXR‐binding assays were performed as two independent experiments, each with a minimum of four replicates. Final IC50 was obtained by processing the data with GraphPad Prism 6 using standard curve interpolation (sigmoidal, 4PL, variable slope).

HDAC1 = molecular target: T2, HDAC1 (Homo sapiens, UniProt Q13547); test: HDAC fluorescent activity assay; format: biochemical; conditions: substrate Peptide (Ac), replicates
T2 construct: purchased Reaction Biology Corp
Description: (§1) The following […] assays (HDAC, SIRT1, PRMT1, PARP1, p300, pCAF) were performed by Reaction Biology Corp. FKK6 was screened at a single concentration of 10 μM in duplicate in two separate experiments. The appropriate controls for the individual assays are published. […]
(§2) The Histone Deacetylase (HDAC) fluorescent activity assay (HDAC1-3) is based on the using 2X purified human enzyme mixed with the reaction buffer (50 mM Tris-HCl pH 8, 137 mM NaCl, 2.7 mM KCl, and 1 mM MgCl2, 1 mg/mL fresh BSA and 1% fresh DMSO) and then compounds (in 100% DMSO) are titrated in using Acoustic Technology.
(§3) The 2X HDAC substrate is a fluorogenic acetylated peptide from p53 (residues 379 - 38 2 RHKK(Ac)AMC) which is mixed in with the enzyme-compound complex and incubated for 1-2 h at 30 °C. In the development step, a proprietary developer with trichostatin A (or TMP269) is added to stop the reaction and to generate fluorescent color which is read using an EnVision Multilabel Plate Reader (Perkin Elmer) (Ex 360 nm/ Em 460 nm). For all enzyme activity assays, the percentage of enzyme activity (relative to DMSO controls) and IC50 values were calculated using GraphPad Prism 4 program (sigmoidal dose response equations). […]
(§4) SMCT solution (0.32 M sucrose, 10 mM Tris -HCl, 1 mM MgCl2, 1 mM CaCl2, 0.1 mM PMSF and freshly prepared 1 mM DTT at pH 7.4) once in the presence of 0.25% Triton X-100 and once in its

HDAC3 = molecular target: T3, HDAC3 (Homo sapiens, UniProt O15379); test: HDAC fluorescent activity assay; format: biochemical; conditions: substrate Peptide (Ac), replicates
T3 construct: purchased Reaction Biology Corp
Description: as §1, §2, §3, §4

HDAC2 = molecular target: T4, HDAC2 (Homo sapiens, UniProt Q92769); test: HDAC fluorescent activity assay; format: biochemical; conditions: substrate Peptide (Ac), replicates
T4 construct: purchased Reaction Biology Corp
Description: as §1, §2, §3, §4

[1] = Solubility of FKK6 in 10% DMSO; format: physicochemical; conditions: aqueous, aqueous with cosolvent or surfactant or cyclodextrin, room temperature, read-out: maximal solubility (saturation concentration)
Description: FKK6 was solubilized to saturation concentrations (~ 500 μM) at room temperature in 10% DMSO (DMSO maximum tolerated dose in mice is ~ 2.5 g/kg/day for 35 consecutive days) (Caujolle et al, 1967a; Brayton, 1986).

mice = test: 30 Day toxicity study in mice; format: in vivo, mouse
Description: (§5) The LS180 cell line was used to assess cell cytotoxicity using the MTT (3‐(4,5‐dimethylthiazolyl‐2)‐2,5‐diphenyltetrazolium bromide) assay as previously described (Bartonkova et al, 2015, 2016). […] FKK6 was selected as a lead compound for assessment, given that it had the more favorable PXR‐selective ligand activity in cells. […] The mice were gavaged for ten consecutive days and necropsied on day 12 with the collection of blood (serum). […] Similarly, a 30‐day toxicity test was conducted in mice using FKK6 at an oral dose of 200 μM in 0.8% DMSO per day. We chose this dose to stay within the safe DMSO dose administered to mice over 30 days. On day 30, we necropsied the mice and collected blood (serum).

NF-κB = test: TNF-α-induced NF-κB reporter assay in LS174T PXR-KO cells; conditions: for NFkB NanoLuc luminescence, aver / NFkB %max: LS174T PXR-KO, EXP3; for NFkB %max: TNFa 5 ng/ml = 100
Text: In early passage PXR‐KO cells, we used PXR and NF‐κB reporter‐co‐transfected and NF‐κB reporter‐transfected PXR‐KO cell line.
CRISPR/Cas9‐mediated knockout cells were generated by Synthego Corporation (Redwood City, CA, USA). Briefly, cells were first tested negative for mycoplasma. Guide RNA was selected for high activity, specificity, and activity to create premature stop codons through frameshift mutations in the coding region via insertions and/or deletions (Indels) within exon 2 of the gene encoding human PXR (NR1I2 transcript ID ENST00000337940). […] To generate these cells, ribonucleoproteins (RNPs) containing the Cas9 protein and synthetic chemically modified sgRNA (Synthego) were electroporated into the cells using Synthego's optimized protocol. Editing efficiency is assessed upon recovery, 48 h post‐electroporation. Genomic DNA is extracted from a portion of the cells, PCR‐amplified, and sequenced using Sanger sequencing. The resulting chromatograms are processed using Synthego Inference of CRISPR Edits software (ice.synthego.com).

C57BL/6 mice = test: 10 Day (acute) toxicity study in mice; format: in vivo, mouse
Description: as §5

[2] = read-out: % Enzyme Activity to DMSO controls
[3] = oral 200 μM in 0.8% DMSO per day, 30 days

T4 sequence (Q92769 whole entry): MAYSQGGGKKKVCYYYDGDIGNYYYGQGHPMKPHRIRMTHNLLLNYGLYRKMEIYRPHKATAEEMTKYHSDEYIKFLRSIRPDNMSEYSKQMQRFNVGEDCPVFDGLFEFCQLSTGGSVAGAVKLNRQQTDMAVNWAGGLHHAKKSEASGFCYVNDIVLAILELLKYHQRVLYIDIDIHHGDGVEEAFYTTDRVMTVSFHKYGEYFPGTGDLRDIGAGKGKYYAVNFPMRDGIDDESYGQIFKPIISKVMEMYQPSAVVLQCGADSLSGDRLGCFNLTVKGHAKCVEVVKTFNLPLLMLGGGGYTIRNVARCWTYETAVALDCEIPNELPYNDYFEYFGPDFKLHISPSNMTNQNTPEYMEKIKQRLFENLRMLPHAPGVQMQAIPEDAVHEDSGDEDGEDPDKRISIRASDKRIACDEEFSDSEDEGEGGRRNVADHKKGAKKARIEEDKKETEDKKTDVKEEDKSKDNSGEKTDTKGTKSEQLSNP
T3 sequence (O15379 whole entry): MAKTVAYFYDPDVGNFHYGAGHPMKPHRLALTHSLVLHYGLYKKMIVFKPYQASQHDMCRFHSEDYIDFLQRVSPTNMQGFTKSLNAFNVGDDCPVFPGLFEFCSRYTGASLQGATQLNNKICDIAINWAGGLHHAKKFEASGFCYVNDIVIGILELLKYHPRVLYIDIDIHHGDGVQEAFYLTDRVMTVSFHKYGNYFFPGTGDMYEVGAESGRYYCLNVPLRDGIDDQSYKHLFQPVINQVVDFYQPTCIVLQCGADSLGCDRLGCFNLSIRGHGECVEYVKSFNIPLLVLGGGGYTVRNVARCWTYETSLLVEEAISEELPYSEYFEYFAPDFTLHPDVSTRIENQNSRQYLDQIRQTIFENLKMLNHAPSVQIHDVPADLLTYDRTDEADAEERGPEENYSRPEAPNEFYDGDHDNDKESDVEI
T3 sequence (Q9Y618 395-489 partner limits assumed): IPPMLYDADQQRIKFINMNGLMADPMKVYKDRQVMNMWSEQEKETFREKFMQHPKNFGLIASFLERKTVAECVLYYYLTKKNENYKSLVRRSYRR
T2 sequence (Q13547 whole entry): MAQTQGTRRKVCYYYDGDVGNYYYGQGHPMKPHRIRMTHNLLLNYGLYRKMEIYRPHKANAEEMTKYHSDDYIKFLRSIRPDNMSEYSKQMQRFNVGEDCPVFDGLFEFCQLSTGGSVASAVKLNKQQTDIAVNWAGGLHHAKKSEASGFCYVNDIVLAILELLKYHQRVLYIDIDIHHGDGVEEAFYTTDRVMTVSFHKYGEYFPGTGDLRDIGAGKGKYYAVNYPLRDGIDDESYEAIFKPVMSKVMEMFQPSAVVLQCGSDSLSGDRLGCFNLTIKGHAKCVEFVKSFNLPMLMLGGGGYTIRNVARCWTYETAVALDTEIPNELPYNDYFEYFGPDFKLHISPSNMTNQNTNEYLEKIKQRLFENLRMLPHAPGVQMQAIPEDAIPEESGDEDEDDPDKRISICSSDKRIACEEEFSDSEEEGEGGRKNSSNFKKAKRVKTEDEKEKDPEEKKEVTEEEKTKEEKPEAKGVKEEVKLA

In the case of C#CCC(O)(c1ccncc1)c1cc2ccccc2n1S(=O)(=O)c1ccccc1 (stereo not drawn) [FKK6], the IC50 (hPXR) is reported as 1560 nM and ~1560 nM, the “% Enzyme Activity to DMSO controls” value (HDAC1; 10 μM) is reported as 101.46% and 89.76% and 86.7% and the remaining activity at 10 µM (HDAC1; [2]) is reported as 106%. For the same compound, the “% Enzyme Activity to DMSO controls” value (HDAC3; 10 μM) was 116.9% and 114.05% and 107.82%, the remaining activity at 10 µM (HDAC3; [2]) was 122% and the “% Enzyme Activity to DMSO controls” value (HDAC2; 10 μM) was 78.19% and 83.24% and 88.71%. The remaining activity at 10 µM (HDAC2; [2]) was 86.3%, the solubility [1] was ~500 µM (≈ 201 µg/mL) and the “Histopathology: Liver” value (mice; 30 day, n=6) was “Mild perivascular lymphohistiocytic aggregates (n=4)”. For the same compound, the “Histopathology: Lung” value (mice; 30 day, n=6) was “Mild leukocytes (n=2)”, the “Histopathology: Spleen” value (mice; 30 day, n=6) was “Mild lymphoid hyperplasia (n=2)” and the serum chemistry profiles (mice; [3]) was “did not significantly alter serum chemistry profiles”. The “tissue pathology vs vehicle” value (mice; [3]) was “did not significantly alter serum chemistry profiles (Fig EV3C and D) or impact tissue pathology”, the “NFkB NanoLuc luminescence, aver” value (NF-κB; 1 μM + TNFα 5 ng/ml) was 70912.7 and the NFkB %max (NF-κB; 1 μM + TNFα 5 ng/ml) was 128.7% and 128.74%. The “NFkB NanoLuc luminescence, aver” value (NF-κB; 10 μM + TNFα 5 ng/ml) was 56963.0, the NFkB %max (NF-κB; 10 μM + TNFα 5 ng/ml) was 103.4% and 103.41% and the “NFkB NanoLuc luminescence, aver” value (NF-κB; 25 μM + TNFα 5 ng/ml) was 50715.5. The NFkB %max (NF-κB; 25 μM + TNFα 5 ng/ml) was 92.1% and 92.07%, the NF-κB reporter activity (NF-κB; TNF-exposed PXR-KO cells) was “neither rifampicin nor FKK6 repressed” and the serum chemistry profiles (C57BL/6 mice; 500 μM in 10% DMSO per day, gavage, ten days) was “did not alter”. The “tissue pathology vs vehicle” value (C57BL/6 mice; 500 μM in 10% DMSO per day, gavage, ten days, necropsy day 12) was “did not significantly impact tissue pathology”, the “Histopathology: Kidney” value (C57BL/6 mice; 10 day, n=6) was “Degenerative tubules/vacuoles (rare) (n=6)” and the “Histopathology: Liver” value (C57BL/6 mice; 10 day, n=6) was “Mild periportal inflammation (n=5)”. The “Histopathology: Lung” value (C57BL/6 mice; 10 day, n=6) was “Mild leukocytes (n=2)” and the “Histopathology: Spleen” value (C57BL/6 mice; 10 day, n=6) was “Mild lymphoid hyperplasia (n=2)”.
Compound O=C(c1ccncc1)c1cc2ccccc2n1S(=O)(=O)c1ccccc1 [FKK5, (1-(phenylsulfonyl)-1H-indol-2-yl)(pyridin-4-yl)methanone] has an IC50 (hPXR) of 3770 nM.
